13 molecules from article PMC11314410, “Synthesis and Anti-Trypanosoma cruzi Activity of New Pyrazole-Thiadiazole Scaffolds” (Molecules, 2024) can be followed below.

Each structure is given as a SMILES string. Read-outs that look alike come from different tables or passages of the source. A value given as a limit tells only on which side of the number the result lay.

A short description of series [1]: Toxicity in mammalian cells (CellTiter Glo, 72 h). Type of series: cell-based. To be noted: African green monkey, Vero cells; 72 h, ATP levels; read-out: Cytotoxicity Vero Cells CC50. How it is done: Vero cell cultures grown in RPMI 1640 medium containing 10% fetal bovine serum (FBS) were cultured at 37 °C in a humidified atmosphere of 5% CO2 [82]. The cultures were used for drug screening assays and to obtain culture-derived trypomastigotes of T. cruzi.
Vero cells (1.5 ×10^4 cells/well), cultivated for 24 h at 37 °C in white 96-well plates with clear bottoms, were used to assess the toxicity of the pyrazole-thiadiazole derivatives (series 1 and 2). After washing, the cells were incubated for 72 h at 37 °C with different drug concentrations (500–1.95 μM). Cell viability was measured by adding 20 μL/well of CellTiter Glo reagent (Promega Corporation, Madison, WI, USA). This cell viability kit generates a luminescent signal proportional to the amount of ATP. The luminescence readout was performed using the Glomax Microplate Reader (Promega Corporation, Madison, WI, USA). Thus, the 50% cytotoxicity concentration (CC50), which reduces the cell viability by 50% (CC50), was calculated with Prism GraphPad software (version 8.2.1).
(Cellular ATP, detected with luciferase, serves as a proxy for viable cell number.)

Series [2] has as its system Trypomastigotes of T. cruzi (Dm28c-Luc). Put plainly: microbe, parasite or virus in culture. Type of series: cell-based, Trypanosoma cruzi. To be noted: for IC50 / IC90: Trypanosoma cruzi, Dm28c-Luc, 24 h treatment; for IC50: 24 h, mean ± SD, read-out: Anti-T. cruzi Activity Trypomastigotes IC50; for IC90: read-out: Anti-T. cruzi Activity Trypomastigotes IC90. On the procedure:
(§1) Genetically modified T. cruzi parasites, of clone Dm28c (TcI) expressing the firefly luciferase enzyme gene (Dm28c-Luc), were kindly provided by Dr. Cristina Henriques. T. cruzi Dm28c-Luc was maintained in a Vero cell cultivated in RPMI 1640 medium supplemented with 10% FBS. At 4-day post-infection (dpi), trypomastigotes, released in the cell culture supernatant, were harvested, followed by sedimentation (4000 rpm/20 min/4 °C) and quantification in a Neubauer chamber. Isolated trypomastigotes were used in the phenotypic screening assays as well as the antiparasitic activity in 3D cardiac microtissues, recovery (washout), and drug combination assays.
Drug screening was performed against clinically relevant forms of T. cruzi (amastigotes and trypomastigotes). Trypomastigotes, Dm28c-Luc (1 × 10^6 parasites/well), were added to 96-well plates and incubated with pyrazole-thiadiazole derivatives or Bz (100–0.41 µM). After 24 h of treatment (37 °C), the viability of the parasites was analyzed by adding a D-Luciferin solution (300 µg/mL) and luminescence was measured in the Glomax microplate reader.

Series [3] concerns Intracellular amastigotes of T. cruzi (Dm28c-Luc). Put plainly: microbe, parasite or virus in culture. It is filed as cell-based, Trypanosoma cruzi. To be noted: for IC50 / IC90: Trypanosoma cruzi; for IC90: read-out: Anti-T. cruzi Activity Intracellular Amastigotes IC90. How it is done:
as §1
The activity of pyrazole-thiadiazole derivatives against intracellular amastigotes was evaluated in 24 h-T. cruzi infected Vero cell cultures (1.5 × 10^4 cells/well) at a 10:1 ratio. The cultures were washed and incubated with serial dilutions of the derivatives or Bz (100–0.41 µM). Drug treatment was carried out for 72 h at 37 °C and the parasite viability was determined by luminescence readout after D-Luciferin substrate addition (300 µg/mL). The reading was performed in the Glomax reader. The cell cultures incubated with the culture medium containing dimethylsulphoxide (DMSO; concentration ≤ 1%) were used as the […]. The concentrations required to inhibit parasite viability by 50% (IC50) and 90% (IC90) were calculated using Prism GraphPad software (version 8.2.1). The selectivity index (SI), which measures the window between cytotoxicity (CC50) and anti-T. cruzi activity (IC50), was calculated as CC50/IC50. A minimum of 3 independent assays in duplicate were performed.

[4] abbreviates: Vero, read-out: Intracellular Amastigotes pIC50 (converted).
Where [5] appears, read: Dm28c-Luc in Vero cells, 72 h treatment, mean ± SD, read-out: Anti-T. cruzi Activity Intracellular Amastigotes IC50.
The mark [6] stands for this setting: Dm28c-Luc in Vero cells, 72 h treatment, mean ± SD.

What is called CC50 is the concentration giving 50% cytotoxicity. The melting point is the temperature of the solid-liquid transition. The IC90 is the point of the concentration-response curve where the effect stands at 90%. Molecule `Nc1nnc(-c2cnn(-c3ccccc3)c2)s1` [1a, 5-Amino-2-(1-phenyl-1H-pyrazol-4-yl)-1,3,4-thiadiazole] came in with a melting point of 289 to 291 °C. The CC50 at 72 h in series [1] was above 500 µM. In series [2], the “Trypomastigotes SI (CC50 of Vero cells/IC50 of trypomastigotes)” value (from here on “Trypomastigotes SI”) is above 5, the IC50 was above 100 µM and the IC90 is above 100 µM. Moreover, in series [3], the “Intracellular Amastigotes SI (CC50 of Vero cells/IC50 of intracellular amastigotes)” value (“Intracellular Amastigotes SI” for short) is reported as above 7.49. The IC50 in series [3] (setting [4]) was 69.2 µM. Moreover, the IC50 in series [3] (setting [5]) was determined as 68.6 ± 1.03 µM. In addition, the IC90 in series [3] (setting [6]) was above 70 µM.
The molecule `Nc1nnc(-c2cnn(-c3cccc(Cl)c3)c2)s1` [1b, 5-Amino-2-(1-(3-chlorophenyl)-1H-pyrazol-4-yl)-1,3,4-thiadiazole] showed a melting point of 310 to 311 °C. Besides, the 50% cytotoxic concentration (CC50) at 72 h in series [1] was above 500 µM. Also, in series [2], the “Trypomastigotes SI” value was above 5, the IC50 is above 100 µM and the 90% effect concentration (IC90) was above 100 µM. Also, the “Intracellular Amastigotes SI” value in series [3] is above 7.73. Besides, in series [3] (setting [4]), the IC50 is 67.6 µM. Besides, the IC50 in series [3] (setting [5]) worked out at 68.1 ± 2.99 µM. Besides, the IC90 in series [3] (setting [6]) was above 70 µM.
`Nc1nnc(-c2cnn(-c3cc(Cl)cc(Cl)c3)c2)s1` [1d, 5-Amino-2-(1-(3,5-dichlorophenyl)-1H-pyrazol-4-yl)-1,3,4-thiadiazole] registered a melting point of 283 to 285 °C. Besides, the CC50 at 72 h in series [1] was above 500 µM. In series [2], the “Trypomastigotes SI” value was above 5, the IC50 was above 100 µM and the IC90 was above 100 µM. Further, the “Intracellular Amastigotes SI” value in series [3] was above 8.29. Besides, the IC50 in series [3] (setting [4]) is 58.9 µM. Moreover, the IC50 in series [3] (setting [5]) amounted to 58.7 ± 12.3 µM. Besides, the IC90 in series [3] (setting [6]) was above 70 µM.
In turn, `Nc1nnc(-c2cnn(-c3ccc(Cl)c(Cl)c3)c2)s1` [1e, 5-Amino-2-(1-(3,4-dichlorophenyl)-1H-pyrazol-4-yl)-1,3,4-thiadiazole] yielded a melting point of 313 to 315 °C. Also, the cytotoxic concentration (CC50) at 72 h in series [1] was above 500 µM. In series [2], the “Trypomastigotes SI” value is above 5, the IC50 is above 100 µM and the 90% effect concentration (IC90) was above 100 µM. For the same molecule, the “Intracellular Amastigotes SI” value in series [3] is recorded as above 25.64. Moreover, in series [3] (setting [4]), the IC50 was 18.6 µM. Besides, the IC50 in series [3] (setting [5]) was found to be 18.8 ± 2.28 µM. Moreover, the IC90 in series [3] (setting [6]) worked out at 40.4 ± 13.3 µM.
As for `Nc1nnc(-c2cnn(-c3ccc(Cl)cc3)c2)s1` [1f, 5-Amino-2-(1-(4-chlorophenyl)-1H-pyrazol-4-yl)-1,3,4-thiadiazole], the melting point fell in the range of 328 to 330 °C. In addition, the CC50 at 72 h in series [1] was above 500 µM. Moreover, in series [2], the “Trypomastigotes SI” value is on record as above 5, the IC50 is above 100 µM and the IC90 was above 100 µM. Besides, the “Intracellular Amastigotes SI” value in series [3] is above 7.14. Besides, in series [3] (setting [4]), the IC50 is above 70.8 µM. The IC50 in series [3] (setting [5]) is above 70 µM. The IC90 in series [3] (setting [6]) is above 70 µM.
As to `Nc1nnc(-c2cnn(-c3ccc(F)cc3)c2)s1` [1g, 5-Amino-2-(1-(4-fluorophenyl)-1H-pyrazol-4-yl)-1,3,4-thiadiazole], the melting point lay within 335 to 337 °C. Besides, in series [1], the CC50 at 72 h was above 500 µM. For the same molecule, in series [2], the “Trypomastigotes SI” value is on record as above 5, the IC50 was above 100 µM and the IC90 is above 100 µM. Further, the “Intracellular Amastigotes SI” value in series [3] was above 7.14. Also, in series [3] (setting [4]), the IC50 is above 70.8 µM. The IC50 in series [3] (setting [5]) was above 70 µM. For the same molecule, the IC90 in series [3] (setting [6]) was above 70 µM.
Turning to `Nc1nnc(-c2cnn(-c3cccc(F)c3)c2)s1` [1h, 5-Amino-2-(1-(3-fluorophenyl)-1H-pyrazol-4-yl)-1,3,4-thiadiazole], the melting point lay in the range of 302 to 303 °C. Besides, the CC50 at 72 h in series [1] is above 500 µM. In series [2], the “Trypomastigotes SI” value was above 5, the IC50 was above 100 µM and the IC90 is above 100 µM. Moreover, the “Intracellular Amastigotes SI” value in series [3] is listed as above 7.86. For the same molecule, the IC50 in series [3] (setting [4]) was 67.6 µM. Moreover, the IC50 in series [3] (setting [5]) was 66.8 ± 3.37 µM. In addition, in series [3] (setting [6]), the IC90 is above 70 µM.
In the case of `Nc1nnc(-c2cnn(-c3ccc(Br)cc3)c2)s1` [1i, 5-Amino-2-(1-(4-bromophenyl)-1H-pyrazol-4-yl)-1,3,4-thiadiazole], the melting point is 340 to 341 °C. Besides, the CC50 at 72 h in series [1] was above 500 µM. In series [2], the “Trypomastigotes SI” value is above 5, the IC50 was above 100 µM and the IC90 is above 100 µM. Further, the “Intracellular Amastigotes SI” value in series [3] is above 17.53. The IC50 in series [3] (setting [4]) is 28.2 µM. In series [3] (setting [5]), the IC50 worked out at 28.4 ± 1.77 µM. Also, the IC90 in series [3] (setting [6]) is above 70 µM.
`Nc1nnc(-c2cnn(-c3cccc(Br)c3)c2)s1` [1j, 5-Amino-2-(1-(3-bromophenyl)-1H-pyrazol-4-yl)-1,3,4-thiadiazole] yielded a melting point of 301 to 303 °C. Also, the CC50 at 72 h in series [1] was above 500 µM. In series [2], the “Trypomastigotes SI” value is given as above 5, the IC50 is above 100 µM and the IC90 was above 100 µM. For the same molecule, in series [3], the “Intracellular Amastigotes SI” value is above 7.14. Moreover, the IC50 in series [3] (setting [4]) is above 70.8 µM. Besides, the IC50 in series [3] (setting [5]) was above 70 µM. Further, the IC90 in series [3] (setting [6]) was above 70 µM.
For `Nc1nnc(-c2cnn(-c3ccc([N+](=O)[O-])cc3)c2)s1` [1k, 5-Amino-2-(1-(4-nitrophenyl)-1H-pyrazol-4-yl)-1,3,4-thiadiazole], the melting point lay within 331 to 333 °C. In series [1], the CC50 at 72 h is above 500 µM. In addition, in series [2], the “Trypomastigotes SI” value is on record as above 5, the IC50 was above 100 µM and the IC90 was above 100 µM. In addition, in series [3], the “Intracellular Amastigotes SI” value is above 8.16. Further, in series [3] (setting [4]), the IC50 was 58.9 µM. Further, the IC50 in series [3] (setting [5]) was found to be 58.3 ± 12.8 µM. The IC90 in series [3] (setting [6]) was above 70 µM.
`COc1ccc(-n2cc(-c3nnc(N)s3)cn2)cc1` [1l, 5-Amino-2-(1-(4-methoxyphenyl)-1H-pyrazol-4-yl)-1,3,4-thiadiazole]: the melting point lay in the range of 298 to 300 °C. In addition, the CC50 at 72 h in series [1] was above 500 µM. Moreover, in series [2], the “Trypomastigotes SI” value is listed as above 9.43, the IC50 was determined as 53 ± 4.44 µM and the IC90 was above 100 µM. In addition, the “Intracellular Amastigotes SI” value in series [3] is above 19.08. Moreover, in series [3] (setting [4]), the IC50 was 24.5 µM. The IC50 in series [3] (setting [5]) came out at 24.5 ± 4.21 µM. For the same molecule, the IC90 in series [3] (setting [6]) is above 70 µM.
As to `Nc1nnc(-c2cnn(-c3ccccc3)c2N)s1` [2a, 5-Amino-2-(5-amino-1-phenyl-1H-pyrazol-4-yl)-1,3,4-thiadiazole], the melting point fell in the range of 131 to 132 °C. In addition, the CC50 at 72 h in series [1] is above 500 µM. In series [2], the “Trypomastigotes SI” value was above 5, the IC50 was above 100 µM and the IC90 was above 100 µM. Further, the “Intracellular Amastigotes SI” value in series [3] is recorded as above 7.14. For the same molecule, the IC50 in series [3] (setting [4]) was above 70.8 µM. Moreover, in series [3] (setting [5]), the IC50 is above 70 µM. In addition, the IC90 in series [3] (setting [6]) is above 70 µM.
In turn, `Nc1nnc(-c2cnn(-c3cccc(Cl)c3)c2N)s1` [2b, 5-Amino-2-(5-amino-1-(3-chlorophenyl)-1H-pyrazol-4-yl)-1,3,4-thiadiazole] returned a melting point of 289 to 291 °C. The CC50 at 72 h in series [1] was above 500 µM. Further, in series [2], the “Trypomastigotes SI” value is above 5, the IC50 is above 100 µM and the IC90 is above 100 µM. In addition, in series [3], the “Intracellular Amastigotes SI” value is recorded as above 7.14. Besides, the IC50 in series [3] (setting [4]) was above 70.8 µM. Also, the IC50 in series [3] (setting [5]) was above 70 µM. For the same molecule, in series [3] (setting [6]), the concentration for an effect of 90% (IC90) was above 70 µM.
